Earlier results in US20220195167A1, “COMPOSITIONS COMPRISING STYRENATED BLOCK COPOLYMER, NON-POLAR OIL AND POLAR OIL” (L'OREAL, priority 2020, published 2022).

Structure (SMILES)	log P
CC(C)CCCCCCCOC(=O)C(C)(C)C [Isodecyl neopentanoate]	6.00
CC(C)CCCCCCCCCCCCCCC(=O)OC(C)C [Isopropyl isostearate]	9.37
CCCCCCCCCCCCCCCC(=O)OC(C)C [Isopropyl palmitate]	8.49
CC(C)CCCCCCCCCCCCCCCOC(=O)C(C)(C)C [Isostearyl neopentanoate]	10.25
CCCCCCCC(=O)OCC(COC(=O)CCCCCCC)OC(=O)CCCCCCC [Tricaprylin]	9.33
